Columns and labels:
U-87 MG cells [1] = test: Test Example 1: promotion of secretion of extracellular vesicles, Tim4-CD9 / Tim4-CD63 ELISA of culture supernatant; type: cell-based; conditions: 24 hours
Protocol: For the detection of extracellular vesicles contained in the culture supernatant, the Tim4-CD63 ELISA method or Tim4-CD9 ELISA method mentioned later was used.
To a 384-well plate (#464718 manufactured by Thermo Fisher Scientific K.K.) was added 1 μg/mL Tim4 protein prepared in Carbonate Buffer (a solution containing 71.4 mM NaHCO3 and 28.6 mM Na2CO3), and it was made a solid phase. The 384-well plate was washed with a 0.05% (v/v %) Tween 20-containing TBS (Tris-Buffer Saline) solution (hereinafter sometimes referred to as “TBST solution”), and then, 50 μL/well of a TBST solution containing 1% (w/v %) BSA was added thereto to carry out a blocking treatment for 1 hour. Next, 30 μL of the culture supernatant recovered above was added to the well, and further 10 μL of an 8 mM CaCl2) solution was added thereto to bind extracellular vesicles to the Tim4 protein. At this time, as a comparative object, a compound-untreated culture supernatant (solvent alone, control) was added to the Tim4 protein solid-phased plate in the same manner. Subsequently, 30 μL/well of 1 μg/mL Anti-human CD63 Antibody (#353014 available from BioLegend Inc.) diluted with a TBST solution containing 2 mM CaCl2) was added thereto and the mixture was reacted for 1 hour. To the mixture was added 50 μL/well of a TBST solution containing 2 mM CaCl2), and then, the TBST solution was removed. After repeating this operation three times, 30 μL/well of 80 ng/mL HRP-conjugated Anti-mouse IgG (#405306 available from BioLegend Inc.) diluted with a TBST solution containing 2 mM CaCl2) was added thereto and the mixture was reacted for 1 hour. Finally, 30 μL/well of a TMB solution (#05298-80 available from Nacalai Tesque Inc.) was added to the mixture and the mixture was reacted for 30 minutes, and then, 30 μL/well of a 1M H2504 solution was added thereto to stop the reaction and by measuring an absorbance at 450 nm to detect the amount of the extracellular vesicles. A relative value when the compound-untreated group (control) was made 1 was calculated. […]

U-87 MG cells [2] = conditions: concentration of at least about 2 μM or less
Protocol: After stirring 10 mL of deactivated FBS and 2 mL of a 50% (w/v %) Poly(ethylene glycol) 10,000 solution (#81280 available from Sigma-Aldrich Co., LLC) at 4° C. for 2 hours, extracellular vesicles were precipitated under the centrifugation conditions of 1,500×g at 4° C. for 30 minutes, and the supernatant was recovered to prepare Exosome-free FBS.

293 cells [3] = test: Test Examples 10 and 11: promotion of secretion of extracellular vesicles, Tim4-CD63 / Tim4-CD81 ELISA and nanoparticle tracking analysis; type: cell-based; conditions: final concentration 0 to 1 μM, 24 hours
Protocol: (§1) After stirring 10 mL of deactivated FBS and 2 mL of a 50% (w/v %) Poly(ethylene glycol) 10,000 solution (#81280 available from Sigma-Aldrich Co., LLC) at 4° C. for 2 hours, extracellular vesicles were precipitated under the centrifugation conditions of 1,500×g at 4° C. for 30 minutes, and the supernatant was recovered to prepare Exosome-free FBS. Next, 293 cells (CRL-1573TM available from ATCC) or 293T cells (CRL-3216TM available from ATCC) were suspended in Advanced DMEM (#12491015 available from Thermo Fisher Scientific K.K.) containing 2% (v/v %) Exosome-free FBS with 2×10^4 cells/200 μL, seeded on an adhesive surface 96-well plate (#3595 manufactured by Corning Inc.) and pre-culture was carried out for 24 hours. After 24 hours, the culture solution was removed, a mixed solution of 199.5 μL of 2% (v/v %) Exosome-free FBS-containing Advanced DMEM and 0.5 μL (final concentration: 0 to 1 μM) of the compound of Example 1, 5 or 9 prepared in DMSO was added thereto, and the cells were cultured for 24 hours. Thereafter, the culture solution was recovered in a 1.5 mL tube, the cells were precipitated under centrifugation conditions of 300×g at 4° C. for 5 minutes, and the culture supernatant was recovered. Subsequently, the recovered culture supernatant was subjected to centrifugation under the conditions of 2,000×g at 4° C. for 20 minutes to precipitate cell fragments, and the supernatant was recovered. Further, the recovered supernatant was subjected to centrifugation under the conditions of 10,000×g at 4° C. for 30 minutes, and the supernatant was recovered. For detection of the extracellular vesicles contained in the supernatant after centrifugation of 10,000×g, Tim4-human CD63 ELISA method and Tim4-human CD81ELISA method mentioned later was used.
(§2) <Tim4-Human CD63 ELISA Method>100 μL/well of 1 μg/mL Tim4 protein prepared in Carbonate Buffer (solution containing 71.4 mM NaHCO3 and 28.6 mM Na2CO3) was added to a 96-well plate (#3801-096 manufactured by IWAKI & CO., LTD.) and made it a solid phase. After washing the 96-well plate with a TBST solution, 200 μL/well of the TBST solution containing 1% (w/v %) BSA was added thereto and a blocking treatment for 1 hour was carried out. Next, 90 μL of the supernatant recovered as mentioned above was added to the well, and 10 μL of a 20 mM CaCl2) solution was further added to bind the extracellular vesicles to the Tim4 protein. Subsequently, 100 μL/well of 1 μg/mL Anti-human CD63 Antibody (#353014 available from BioLegend Inc.) diluted with the TBST solution containing 2 mM CaCl2) was added thereto and the reaction was carried out for 1 hour. 200 μL/well of the TBST solution containing 2 mM CaCl2) was added thereto, and thereafter, the TBST solution was removed. […]

293T cells [4] = test: as above; type: cell-based; conditions: final concentration 0 to 1 μM, 24 hours
Protocol: as §1, §2

293 cells [5] = test: Test Example 12: cytotoxicity, LDH activity in culture supernatant; type: cell-based; conditions: concentration of at least about 0.3 μM or less
Protocol: (§4) After stirring 10 mL of deactivated FBS and 2 mL of a 50% (w/v %) Poly(ethylene glycol) 10,000 solution (#81280 available from Sigma-Aldrich Co., LLC) at 4° C. for 2 hours, extracellular vesicles were precipitated under the centrifugation conditions of 1,500×g at 4° C. for 30 minutes, and the supernatant was recovered to prepare Exosome-free FBS. Next, 293 cells (CRL-1573TM available from ATCC) or 293T cells (CRL-3216TM available from ATCC) were suspended in Advanced DMEM (#12491015 available from Thermo Fisher Scientific K.K.) containing 2% (v/v %) Exosome-free FBS with 2×10^4 cells/200 μL, seeded on an adhesive surface 96-well plate (#3595 manufactured by Corning Inc.), and pre-culture for 24 hours was carried out. […] The activity of lactate dehydrogenase (LDH) contained in the culture supernatant was measured using
(§5) Cytotoxicity LDH Assay Kit-WST (#CK12 manufactured by Dojindo Laboratories). […] The reaction was stopped by adding 25 μL of Stop Solution, and the cytotoxicity was evaluated by measuring the absorbance at 490 nm. The activities of LDH of the dead cell group (sample to which 20 μL of Lysis Buffer was added to compound-untreated cells 15 minutes before recovery of the culture solution) and the culture solution (culture solution in which no cell culture was carried out) were also measured in the same manner, and cytotoxicity of each compound was evaluated.

293T cells [6] = test: as above; type: cell-based; conditions: concentration of at least about 0.3 μM or less
Protocol: as §4, §5

293 cells [7] = test: Test Example 13: cell proliferation activity, Cell Count Reagent SF; type: cell-based
Protocol: (§3) After 30 minutes, absorbance at 450 nm was measured to evaluate cell proliferation activity.

293T cells [8] = test: as above; type: cell-based
Protocol: as §3

[9] = concentration of at least about 0.3 μM or less
[10] = concentration of at least about 0.03 μM (30 nM) or less

Compound	secretion of CD9 and/or CD63-positive extracellular vesicles (U-87 MG cells [1]; 10 μM)	cytotoxicity to U-87 MG cells (LDH amount in the culture supernatant) (U-87 MG cells [2])	amount of secretion of CD63 and/or CD81-positive extracellular vesicles (293 cells [3])	amount of secretion of CD63 and/or CD81-positive extracellular vesicles (293T cells [4])	cytotoxicity (LDH amount in the culture supernatant) (293 cells [5])	cytotoxicity (LDH amount in the culture supernatant) (293T cells [6])	effect on the proliferative activity (293 cells [7]; [9])	effect on the proliferative activity (293T cells [8]; [9])	secretion of CD9 and/or CD63-positive extracellular vesicles (U-87 MG cells [1]; 5 μM)	secretion of CD63-positive extracellular vesicles (U-87 MG cells [1]; 5 μM)	effect on the proliferative activity (293 cells [7]; [10])	effect on the proliferative activity (293T cells [8]; [10])
CC(=O)O.Cc1cc2c(C(C)C)c(O)c(O)c(C=O)c2c(O)c1-c1c(C)cc2c(C(C)C)c(O)c(O)c(C=O)c2c1O (racemic) [Example 1, (±)-Gossypol Acetate]	strongly promoted secretion	low	promotes	promotes	low cytotoxicity	low cytotoxicity	do not significantly affect	do not significantly affect				
COC1=CC(c2cc3ccccc3[nH]2)=N/C1=C\c1[nH]c(C)cc1C.CS(=O)(=O)O [Example 5, Obatoclax Mesylate]			promotes	promotes					promotes secretion	strongly promoted secretion	do not significantly affect	do not significantly affect

Reference: US20220162561A1, “COMPOSITION FOR PROMOTING SECRETION OF EXTRACELLULAR VESICLES” (priority 2019, published 2022)
